The record followed here is ChEMBL document CHEMBL1201862, “PubChem BioAssay data set” (2004).

One test addresses SUMO-activating enzyme (Homo sapiens, UniProt Q9UBT2). Put plainly: blockers of UBC9-mediated SUMO conjugation – biochemical, AlphaScreen, SUMOylation inhibitor project, confirmation (AID 2018). The test is classed as functional. (Alpha assays give light when donor and acceptor beads are brought close together.)
The nature of test [1]: THP-1 cell cytotoxicity, dose response, cytotoxicity control for non-replicating M. tuberculosis project (AID 489025). Format: functional.
A short description of test [2]: HepG2 cell cytotoxicity, dose response, cytotoxicity control for non-replicating M. tuberculosis project (AID 489018). Format: functional. Conditions: Mycobacterium tuberculosis.
Test [3] in a line: Vero E6 cell cytotoxicity, dose response, cytotoxicity control for non-replicating M. tuberculosis project, secondary assay (AID 492998). Format: functional, VeroE6. Conditions: Vero C1008.
The next test is described as follows: cells. Format: functional.
Test [4] concerns Streptococcus sp. 'group A'. Put plainly: Streptococcus pyogenes SK(-)GAS viability under kanamycin – luminescence, BacTiterGlo, confirmation, counter-screen for streptokinase expression inhibitor project, dose response (AID 1900). Format: functional, organism-based. On the technique in general: The purpose of a counterscreen is to sort out artefacts and off-target activity.
Test [5] can be described thus: Trypanosoma cruzi growth suppression in host cells – NIH3T3 host cells, beta-gal luminescence, confirmation (AID 2044).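 Note: intracellular parasites grown in NIH/3T3 mouse fibroblasts as host cells; luminescent beta-galactosidase reporter signal from transgenic T. cruzi replicating inside host cells; inhibitors lower the luminescence signal.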 The test is classed as functional, cell-based.
Test [6] concerns the target T1, Calpain-2 catalytic subunit (Sus scrofa, UniProt P43367).
T1 sequence (P43367 whole entry): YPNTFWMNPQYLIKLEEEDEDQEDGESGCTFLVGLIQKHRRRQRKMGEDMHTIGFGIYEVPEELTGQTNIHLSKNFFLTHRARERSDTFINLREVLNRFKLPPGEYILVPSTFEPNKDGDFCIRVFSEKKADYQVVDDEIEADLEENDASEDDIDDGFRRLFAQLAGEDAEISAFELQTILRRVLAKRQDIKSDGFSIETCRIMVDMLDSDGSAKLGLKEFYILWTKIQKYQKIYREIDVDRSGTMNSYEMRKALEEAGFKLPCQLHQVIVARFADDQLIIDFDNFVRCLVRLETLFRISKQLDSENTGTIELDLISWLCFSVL
Put plainly: m-calpain protease blockers, concentration series – biochemical, fluorogenic peptide substrate, dose response (AID 1420). The test is classed as functional.

The nature of test [7]: NIH3T3 cell viability loss – ATP luminescence, mouse fibroblasts, counter-screen, dose response (AID 2010).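 Note: cells exposed to compound for about 90 hours before reading.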 The test is classed as functional, cell-based.
In a further test the test system is Streptococcus. Put plainly: GAS UMAA2166 growth inhibition – luminescence, BacTiterGlo, counter-screen for streptokinase expression inhibitor project, dose response (AID 1915).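 Note: potency for reduction of bacterial viability or growth.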 The test is classed as functional, organism-based.
Another test concerns Escherichia coli. Put plainly: microbe, parasite or virus in culture.
Test [8] has as its system Vero. Put plainly: cells. Format: functional, cell-based. Conditions: Chlorocebus sabaeus.
In test [9] the test system is Vero. Put plainly: cells. The test is classed as functional. Conditions: Chlorocebus sabaeus.
The next test has as its target T2, Bcl-2-like protein 10 (Homo sapiens, UniProt Q9HD36).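 Note: fluorescence polarization from a fluorescein-labelled TR3 peptide binding purified Bcl-B.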
T2 sequence (Q9HD36 whole entry): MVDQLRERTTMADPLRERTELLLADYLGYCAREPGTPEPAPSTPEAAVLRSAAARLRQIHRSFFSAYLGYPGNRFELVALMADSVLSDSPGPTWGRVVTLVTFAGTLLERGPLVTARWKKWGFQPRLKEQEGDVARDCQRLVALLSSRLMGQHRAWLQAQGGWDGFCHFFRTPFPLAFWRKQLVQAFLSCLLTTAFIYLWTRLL
Put plainly: Bcl-B/TR3 peptide binding disruption – biochemical, fluorescence polarization, FITC-TR3 peptide, selectivity assay for Bfl-1 inhibitor project, primary screen (AID 748). (Polarisation of emitted light reports the rotation of a fluorescent probe.)

The target in the next test is Tumor necrosis factor (Homo sapiens, UniProt P01375). Put plainly: analog potency on TNFa NF-kB signaling – cell-based, revised, SAR follow-up (AID 2337). Format: functional.
Chain of Tumor necrosis factor (P01375 whole entry, the tested form may be a part): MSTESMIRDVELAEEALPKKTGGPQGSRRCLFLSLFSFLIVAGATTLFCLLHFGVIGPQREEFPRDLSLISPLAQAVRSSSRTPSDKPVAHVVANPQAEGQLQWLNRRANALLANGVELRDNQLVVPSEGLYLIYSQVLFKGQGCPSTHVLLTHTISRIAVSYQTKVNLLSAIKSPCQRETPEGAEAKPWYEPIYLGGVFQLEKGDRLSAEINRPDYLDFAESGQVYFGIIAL
Test [10] concerns the target T3, Nucleotide-binding oligomerization domain-containing protein 1 (Homo sapiens, UniProt Q9Y239).
T3 sequence (Q9Y239 whole entry): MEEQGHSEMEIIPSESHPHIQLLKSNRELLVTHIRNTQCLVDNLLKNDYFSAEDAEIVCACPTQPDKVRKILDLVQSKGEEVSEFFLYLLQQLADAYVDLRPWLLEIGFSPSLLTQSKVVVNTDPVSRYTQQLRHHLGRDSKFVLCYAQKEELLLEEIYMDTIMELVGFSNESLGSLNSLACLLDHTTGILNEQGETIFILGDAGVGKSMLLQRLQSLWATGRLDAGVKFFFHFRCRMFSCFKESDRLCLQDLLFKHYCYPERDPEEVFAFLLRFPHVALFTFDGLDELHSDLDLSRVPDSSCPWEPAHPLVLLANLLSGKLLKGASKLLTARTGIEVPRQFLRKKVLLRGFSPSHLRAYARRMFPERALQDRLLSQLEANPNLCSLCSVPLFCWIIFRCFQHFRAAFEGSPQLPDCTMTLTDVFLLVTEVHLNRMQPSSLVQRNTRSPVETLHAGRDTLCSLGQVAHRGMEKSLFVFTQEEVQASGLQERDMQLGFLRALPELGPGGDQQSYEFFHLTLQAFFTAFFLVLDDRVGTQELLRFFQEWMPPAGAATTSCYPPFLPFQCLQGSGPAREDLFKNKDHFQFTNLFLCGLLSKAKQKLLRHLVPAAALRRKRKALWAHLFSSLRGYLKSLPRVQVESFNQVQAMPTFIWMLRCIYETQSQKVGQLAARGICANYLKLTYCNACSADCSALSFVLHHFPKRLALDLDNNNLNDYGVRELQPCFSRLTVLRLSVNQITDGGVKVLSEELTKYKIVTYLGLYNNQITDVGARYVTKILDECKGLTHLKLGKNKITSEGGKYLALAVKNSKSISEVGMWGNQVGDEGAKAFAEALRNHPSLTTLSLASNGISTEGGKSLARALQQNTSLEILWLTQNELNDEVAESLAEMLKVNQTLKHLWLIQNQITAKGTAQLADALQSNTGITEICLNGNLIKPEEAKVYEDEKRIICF
Put plainly: blockers of NOD1 pathway activity – revised, SAR follow-up (AID 2333). The test is classed as functional.

The subject of the next test is HEK293. Put plainly: cells. The note with it: Homo sapiens.
The nature of test [11]: Luminescence Cell-Based Dose Response HTS to Identify Activators of Luciferase Translation or Activity in H4 […] Cells. [Related pubchem assays: 1829 (Project Summary), 1814 (Primary HTS)]. The test is classed as functional.
The next test relates to H4. Put plainly: Luminescence Cell-Based Dose Response HTS to Identify Activators of 5'UTR Stem-Loop Driven Prion Protein mRNA Translation in H4 Neuroglioblastoma Cells. [Related pubchem assays: 1829 (Project Summary), 1814 (Primary HTS)]. Format: functional. The note with it: Homo sapiens.
Another test deals with Large T antigen (Simian virus 40, UniProt P03070). The test is classed as functional, Betapolyomavirus macacae.
Chain of Large T antigen (P03070 whole entry): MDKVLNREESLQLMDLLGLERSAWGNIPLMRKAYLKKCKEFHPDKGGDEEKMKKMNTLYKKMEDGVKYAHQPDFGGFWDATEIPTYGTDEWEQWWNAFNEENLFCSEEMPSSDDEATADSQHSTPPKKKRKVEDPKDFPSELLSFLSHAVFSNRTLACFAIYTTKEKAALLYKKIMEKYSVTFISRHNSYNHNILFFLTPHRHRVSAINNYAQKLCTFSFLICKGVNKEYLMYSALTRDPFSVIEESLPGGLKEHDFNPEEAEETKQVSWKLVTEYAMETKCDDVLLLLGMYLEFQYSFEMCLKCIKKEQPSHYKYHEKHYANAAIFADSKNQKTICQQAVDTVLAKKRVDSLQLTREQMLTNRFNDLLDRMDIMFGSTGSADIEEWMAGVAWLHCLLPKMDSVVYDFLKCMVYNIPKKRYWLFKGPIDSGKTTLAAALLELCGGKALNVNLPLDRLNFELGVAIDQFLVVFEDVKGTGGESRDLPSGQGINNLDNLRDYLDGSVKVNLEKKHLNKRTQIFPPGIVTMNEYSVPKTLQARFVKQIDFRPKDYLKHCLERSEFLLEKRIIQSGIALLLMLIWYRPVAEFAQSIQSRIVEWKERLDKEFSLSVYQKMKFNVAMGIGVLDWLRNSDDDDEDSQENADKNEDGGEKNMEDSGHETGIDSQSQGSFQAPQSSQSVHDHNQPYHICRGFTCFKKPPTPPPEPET
Test [12] deals with DNA dC->dU-editing enzyme APOBEC-3G (Homo sapiens, UniProt Q9HC16). Put plainly: Dose Response confirmation of small molecule APOBEC3G DNA Deaminase Inhibitors via a fluorescence-based single-stranded DNA deaminase assay. [Related pubchem assays (depositor defined):AID493012, AID493028]. Format: functional.
Chain of DNA dC->dU-editing enzyme APOBEC-3G (Q9HC16 whole entry): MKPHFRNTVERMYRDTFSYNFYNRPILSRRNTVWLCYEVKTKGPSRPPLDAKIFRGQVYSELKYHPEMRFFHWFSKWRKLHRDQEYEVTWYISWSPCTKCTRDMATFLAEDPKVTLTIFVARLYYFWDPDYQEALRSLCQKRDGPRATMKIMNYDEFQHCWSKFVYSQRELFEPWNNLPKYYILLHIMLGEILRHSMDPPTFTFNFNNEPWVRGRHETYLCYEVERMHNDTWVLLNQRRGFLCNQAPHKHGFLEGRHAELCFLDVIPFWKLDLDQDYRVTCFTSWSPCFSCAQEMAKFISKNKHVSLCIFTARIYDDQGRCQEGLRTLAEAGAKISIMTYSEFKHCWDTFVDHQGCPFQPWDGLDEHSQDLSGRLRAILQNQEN
The nature of test [13]: Luminescence Cell-Based Dose Retest to Confirm Inhibitors of Cancer Stem Cells. [Related pubchem assays (depositor defined):AID2717, AID2721]. Format: functional. Conditions: Homo sapiens.
In test [14] the target is T4, Ubiquitin-conjugating enzyme E2 N (Homo sapiens, UniProt P61088).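 Note: Dose-response confirmation in a TR-FRET assay detecting UBC13-driven polyubiquitin chain formation, inhibition measured.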
T4 sequence (P61088 whole entry): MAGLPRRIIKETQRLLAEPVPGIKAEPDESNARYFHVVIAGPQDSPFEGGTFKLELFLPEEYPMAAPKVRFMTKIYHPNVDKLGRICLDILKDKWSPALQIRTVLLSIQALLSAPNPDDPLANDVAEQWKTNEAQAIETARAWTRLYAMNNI
The test is classed as functional.

Test [15] concerns the target T5, Microphthalmia-associated transcription factor (Homo sapiens, UniProt O75030).
T5 sequence (O75030 whole entry): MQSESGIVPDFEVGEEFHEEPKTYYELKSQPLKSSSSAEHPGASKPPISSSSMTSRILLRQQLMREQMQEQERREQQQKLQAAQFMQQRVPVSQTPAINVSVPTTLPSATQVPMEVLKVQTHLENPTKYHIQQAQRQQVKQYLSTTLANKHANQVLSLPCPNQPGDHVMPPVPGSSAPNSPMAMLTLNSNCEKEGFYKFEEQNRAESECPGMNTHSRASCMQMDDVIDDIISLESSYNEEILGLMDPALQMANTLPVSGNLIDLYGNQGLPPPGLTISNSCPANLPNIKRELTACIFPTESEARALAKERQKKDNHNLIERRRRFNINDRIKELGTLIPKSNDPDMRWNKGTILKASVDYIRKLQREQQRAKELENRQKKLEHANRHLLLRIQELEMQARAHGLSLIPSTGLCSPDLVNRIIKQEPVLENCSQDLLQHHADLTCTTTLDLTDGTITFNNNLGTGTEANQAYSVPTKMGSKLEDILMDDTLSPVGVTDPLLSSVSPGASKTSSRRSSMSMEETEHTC
Put plainly: reducers of TRPM1 reporter luminescence, concentration series – cell-based, SK-MEL-5, cherry-picked, set 3, MITF inhibitor project, dose response (AID 493073).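 Note: SK-MEL-5 melanoma cells with luciferase driven by the MITF target TRPM1 promoter.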 The test is classed as functional.

Test [16] can be described thus: viability of uninfected HEp-2 cells – cell-based, HTS, cytotoxicity control for RSV inhibitor project, dose response (AID 2410). Format: functional. Conditions: human respiratory syncytial virus.

The structures appear in SMILES notation. Active and inactive are the calls of the source. Where only a bound is given, the exact number is not on record here.

Usually IC50 stands for the concentration needed to halve the response being measured. The CC50 is the concentration at which the toxic effect on the cells reaches its halfway point. Usually EC50 stands for the midpoint of the concentration-response curve. The term AC50 denotes the concentration at which the activity in the assay is half-maximal.

Chain of SUMO-activating enzyme (Q9UBE0 whole entry): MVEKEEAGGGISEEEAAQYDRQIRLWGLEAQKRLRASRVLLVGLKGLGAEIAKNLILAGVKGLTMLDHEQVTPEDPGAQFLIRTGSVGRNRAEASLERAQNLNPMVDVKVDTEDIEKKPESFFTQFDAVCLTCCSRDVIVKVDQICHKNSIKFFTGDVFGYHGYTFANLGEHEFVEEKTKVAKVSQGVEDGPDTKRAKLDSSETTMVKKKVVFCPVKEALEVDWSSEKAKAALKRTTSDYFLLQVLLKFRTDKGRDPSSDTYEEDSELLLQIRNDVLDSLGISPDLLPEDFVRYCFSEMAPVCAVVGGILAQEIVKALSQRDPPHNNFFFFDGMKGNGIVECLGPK
Chain of SUMO-activating enzyme (Q9UBT2 whole entry): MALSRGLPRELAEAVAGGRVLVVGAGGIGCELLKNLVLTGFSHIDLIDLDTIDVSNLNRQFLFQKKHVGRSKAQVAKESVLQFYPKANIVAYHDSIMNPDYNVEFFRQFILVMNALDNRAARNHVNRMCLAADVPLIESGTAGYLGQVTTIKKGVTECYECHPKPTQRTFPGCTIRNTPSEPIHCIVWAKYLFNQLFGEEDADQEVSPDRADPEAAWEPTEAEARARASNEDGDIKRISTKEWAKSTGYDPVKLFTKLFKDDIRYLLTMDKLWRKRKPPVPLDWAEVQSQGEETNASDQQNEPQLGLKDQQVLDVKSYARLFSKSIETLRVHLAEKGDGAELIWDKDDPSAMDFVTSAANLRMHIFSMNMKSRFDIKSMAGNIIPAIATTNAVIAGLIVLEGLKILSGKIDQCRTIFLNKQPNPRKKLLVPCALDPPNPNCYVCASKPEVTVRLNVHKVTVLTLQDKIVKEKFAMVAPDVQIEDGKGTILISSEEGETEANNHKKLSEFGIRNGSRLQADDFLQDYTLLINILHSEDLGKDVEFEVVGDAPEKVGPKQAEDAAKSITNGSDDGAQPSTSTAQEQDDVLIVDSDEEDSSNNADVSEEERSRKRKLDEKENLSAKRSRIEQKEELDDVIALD

For `O=C(Nc1ccc2nc3ccccc3nc2c1)c1ccc(Br)cc1`, the IC50 at SUMO-activating enzyme is 26.7 µM (active).

Consider `Cc1nc(C(=O)NNC(=O)c2ccc(Cl)cc2)c(C(F)(F)F)o1`, for which the CC50 in test [1] is 27.8 µM (active); in test [2] it was > 20 µM (active); in test [3] it was > 20 µM (active). Further, in “cells”, the IC50 was 44.9 µM (active).

As to `Cc1cc(C(=O)N/N=C/c2ccc([N+](=O)[O-])s2)[nH]n1`, the EC50 was 1.86 µM (active) in test [4], 0.612 µM (active) in test [5], > 60 µM (not active) in test [7] and 2.69 µM (active) in the test on Streptococcus. The IC50 was 6.84 µM (not active) in test [6] and 8.88 µM (active) in the test “cells”. Further, the CC50 was > 40 µM (active) in test [1] and 16.9 µM (active) in test [3].

Take `COc1ccccc1OC(=O)c1ccc(C)c(S(=O)(=O)N2CCOCC2)c1`: the AC50 with Escherichia coli is 23.7 µM (active).

Turning to `COc1ccc(C(=O)/C=C/c2cccnc2)c(OC)c1`, the IC50 in the test on Vero [8] is > 25 µM (active). In addition, the CC50 in the test on Vero [9] was 14.9 µM (active).

Regarding `COc1ccc(C(=O)Nc2ccc(-c3nnn(CC(=O)NCc4ccco4)n3)cc2)cc1`, the IC50 at SUMO-activating enzyme was 43.1 µM (active).

On to `CCC(=O)Nc1cccc(NC(C)=O)c1`, for which the IC50 on Bcl-2-like protein 10 was 56.6 µM (inactive).

With `CCOc1ccc(NC(=O)c2ccc(NC(=O)COC(=O)Cc3ccc(OC)cc3)cc2)cc1`, the AC50 with Escherichia coli is 21.4 µM (active).

Turning to `CC(C)(C)C(=O)/N=C(\N)Nc1nc2ccccc2o1`, the IC50 on Tumor necrosis factor was 16.5 µM (active); in [10] it was > 20 µM (inactive); with HEK293, > 20 µM (inactive).

For the compound `CCN(Cc1ccccc1)S(=O)(=O)c1c[nH]c(C(=O)OC)c1`, the half-maximal activity concentration (AC50) with Escherichia coli was 80.5 µM (active).

For `Cc1cc(C(=O)NC2CCCc3c2cnn3-c2cccc(C)c2C)no1` (configuration not stated), the EC50 (in test [11]; in the test with H4) was > 120 µM (not active) each time. The IC50 in the test on Vero [8] was 1.53 µM (active).

As for `CCCCNC(=O)COC(=O)c1ccc(Cl)c(S(=O)(=O)N2CCCC2)c1`, the IC50 at Bcl-2-like protein 10 was > 100 µM (inactive).

With `Cc1nc(SC(C)C(=O)NCC2CCCO2)c2cc(-c3ccccc3)sc2n1` (configuration not stated), in the test with Vero [8], the IC50 is 5.04 µM (active). In addition, the CC50 in the test with Vero [9] is > 25 µM (active).

In the case of `Cc1c(N2C(=O)/C(=C\c3ccccc3O)SC2=S)c(=O)n(-c2ccccc2)n1C`, the IC50 is 45.2 µM (active) at Large T antigen and 46.2 µM (active) in test [12].

For `OC(CNCC1CCCO1)Cn1c2ccc(Cl)cc2c2cc(Cl)ccc21` (configuration not stated), the CC50 is 9.03 µM (active) in test [1], 7.5 µM (active) in test [2] and 11.2 µM (active) in test [3]. In addition, the AC50 in test [13] was 3.42 µM (active). Moreover, the IC50 is > 20 µM (inactive) in test [14] and 8.48 µM (active) in “cells”.

On to `CCC[n+]1c(C)sc2c3c(ccc21)CCCC3`, for which the AC50 in [15] was 9.87 µM (active).

As for `O=C1c2ccccc2C(=O)c2c1cccc2N1CCN(CCO)CC1`, the IC50 on Bcl-2-like protein 10 is > 25 µM (inactive).

As for `CCCCn1c(N)c(N(CCOC)C(=O)COC(=O)C(C)Oc2ccc(Cl)cc2)c(=O)[nH]c1=O` (configuration not stated), the AC50 in the test on Escherichia coli was 22 µM (active).

On to `CCN(CC)C(=O)Oc1ccc2ccccc2c1Br`, for which the CC50 was 44.8 µM (active) in test [16] and 22.7 µM (active) in the test with Vero [9]. Further, in the test on Vero [8], the IC50 was > 25 µM (active).

As to `COc1cccc(C(=O)N2N=C(c3ccccn3)CC2(O)C(F)(F)F)c1` (configuration not stated), the results for the CC50 in [1], in [2] and in test [3] were 9.99 µM (active), > 20 µM (active) and 10.1 µM (active), respectively. For the same compound, in “cells”, the IC50 was 8.68 µM (active).
